From the supplement of paper PMC10790783

Tested on: MRC5-hT fibroblasts expressing HCMV UL38 (glucose-free medium)
Test: rescue of cell number (AUC of dose-response) relative to untreated glucose-free control; higher = stronger protection from glucose-starvation-induced cell death
Details: glucose: 0 (glucose-free DMEM); 96 h; dose range 0.001-20, 10-point curve µM
Protocol: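 MRC5-hT fibroblasts stably expressing HCMV UL38 were seeded in 384-well plates, serum-starved for 24 h, switched to glucose-free DMEM, and pin-transferred with a metabolism-focused compound library as 10-point dose curves (1 nM to 20 µM; n=2). Nuclei were counted by Hoechst imaging 96 h after glucose withdrawal.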

O=S(=O)(O)CCSSCCS(=O)(=O)O [Dimesna]
rescue of cell number: -37.8%

C/C=C/C/C=C/CCC(=O)[C@H]1O[C@H]1C(N)=O [Cerulenin]
rescue of cell number: 34.9%

CC(C)(C#N)c1cc(Cn2cncn2)cc(C(C)(C)C#N)c1 [Anastrozole]
rescue of cell number: 29.4%

Nc1nc(Cl)nc2c1ncn2[C@H]1C[C@H](O)[C@@H](CO)O1 [Cladribine]
rescue of cell number: -12.9%

CNc1ccc(C(=O)Oc2cc(O/N=[N+](\[O-])N(C)C)c([N+](=O)[O-])cc2[N+](=O)[O-])cc1 [PABA_NO]
rescue of cell number: -16.1%

S=C=NCCc1ccccc1 [PEITC]
rescue of cell number: 37.8%

CCc1nc(N)nc(N)c1-c1ccc(Cl)cc1 [Pyrimethamine]
rescue of cell number: -35.1%

CCCCC/C=C/C(=O)CCc1ccc(O)c(OC)c1 [Shogaol]
rescue of cell number: -6.33%

Oc1ccc(/C=C/c2cc(O)cc(O)c2)cc1 [Resveratrol]
rescue of cell number: -35.9%

COc1cc(O)c(CC=C(C)C)c(O)c1C(=O)/C=C/c1ccc(O)cc1 [Xanthohumol]
rescue of cell number: 15.1%

Cc1ccc(-c2c(-c3nn(C)c4ncnc(N5CC[C@H](N6CCCCC6)C5)c34)cnn2C)cc1
rescue of cell number: 45.6%

O[C@H]1[C@H]2[C@H](O)CCCN2C[C@H]1O [Swainsonine]
rescue of cell number: -31.9%

Oc1cc(Cl)ccc1Oc1ccc(Cl)cc1Cl [Triclosan]
rescue of cell number: 5.01%

CN(NC(=O)CC(=O)NN(C)C(=S)c1ccccc1)C(=S)c1ccccc1 [Elesclomol]
rescue of cell number: 111%

CC1=C(CC(=O)O)c2cc(F)ccc2/C1=C\c1ccc([S+](C)[O-])cc1 (stereo unspecified) [Sulindac]
rescue of cell number: -22.1%

CCCCCCCCCCCCCCCCOc1nc2ccc(C)cc2c(=O)o1 [Cetilistat]
rescue of cell number: -5.21%

CC1=C(/C=C/C(C)=C/C=C/C(C)=C/C(=O)O)C(C)(C)CCC1 [Tretinoin]
rescue of cell number: 10%

CCN(CC)Cc1ccc(C(=O)N(CCc2ccccc2OC)[C@@H]2CCNC2)cc1
rescue of cell number: 63.9%

N[C@H](C(=O)O)[C@@H]1CC(Cl)=NO1 [Acivicin]
rescue of cell number: -32.4%

CCOC(=O)[C@@H](N)CCC(=O)N[C@@H](CSCc1ccccc1)C(=O)N[C@@H](C(=O)OCC)c1ccccc1 [Telintra]
rescue of cell number: 16.7%

O=C(C1CC1)N1CC[C@@H](Cc2n[nH]c(=O)n2-c2ccc(-c3ccc4occc4c3)cc2)C1
rescue of cell number: 117%

COc1ccccc1OCC(O)CN1CCN(CC(=O)Nc2c(C)cccc2C)CC1 (stereo unspecified) [Ranolazine]
rescue of cell number: -35.4%

Cn1c2cc([S+](C)[O-])sc2c2cnn(Cc3cccc(N)c3)c(=O)c21 (stereo unspecified) [TEPP_46]
rescue of cell number: 92.3%

NC(=O)c1[nH]nc([C@@H]2O[C@H](CO)[C@@H](O)[C@H]2O)c1O [Pyrazofurin]
rescue of cell number: 26.5%

NS(=O)(=O)c1ccc(NC(=O)Nc2ccc(F)cc2)cc1 [U_104]
rescue of cell number: -34.7%

OCC(CO)N[C@H]1C[C@](O)(CO)[C@@H](O)[C@H](O)[C@H]1O [Voglibose]
rescue of cell number: -36.2%

CN1Cc2c(N)cccc2C(c2ccccc2)C1 (stereo unspecified) [Nomifensine]
rescue of cell number: -5.61%

CC1=CC(=O)c2ccccc2C1=O [Menadione]
rescue of cell number: 23.5%

NOCC[C@H](N)C(=O)O [L_Canaline]
rescue of cell number: 68%

OC[C@H]1O[C@@H](c2ccc(F)c(Cc3cc4ccccc4s3)c2)[C@H](O)[C@@H](O)[C@@H]1O [Ipragliflozin]
rescue of cell number: -33.8%

OC[C@H]1NC[C@H](O)[C@@H](O)[C@@H]1O [1_Deoxynojirimycin]
rescue of cell number: 5.66%

CC(C)(C)c1ccc(S(=O)(=O)NCc2ccc(C(=O)Nc3cccnc3)cc2)cc1 [STF_31]
rescue of cell number: 26.1%

Cc1nc(-c2ccc(OCC(C)C)c(C#N)c2)sc1C(=O)O [Febuxostat]
rescue of cell number: 73.9%

CC(C)C[C@@H](C(=O)N[C@H](C(=O)OC1CCCC1)c1ccccc1)[C@H](O)C(=O)NO [CHR_2797]
rescue of cell number: -14.9%

CCCc1cc(-c2nc(-c3ccc(C)cc3)cs2)ccn1 [Fatostatin_A]
rescue of cell number: 76.5%

Nc1nc(=S)c2[nH]cnc2[nH]1 [6_Thioguanine]
rescue of cell number: 42.9%

COc1cc(O)c2c(c1)C(=O)c1cc(C)cc(O)c1C2=O [Physcion]
rescue of cell number: -37.6%

O=C(O)[C@@]1(CCCCCCOc2ccc(Cl)cc2)CO1 [(R)_(+)_Etomoxir_sodium_salt]
rescue of cell number: 17.7%

C[N+](C)(C)CCO.C[N+](C)(C)CCO.[SH-].[SH-].[S]=[Mo]=[S] [ATN-224]
rescue of cell number: -20.1%

CC[C@@H]1/C=C/C=C/C[C@H](C)[C@H](O)[C@](C)(O)C(=O)[C@H](C)[C@@H](O)[C@H](C)C(=O)[C@H](C)[C@@H](O)[C@H](C)/C=C/C(=O)O[C@H]2[C@@H](C)[C@@H](CC1)O[C@@]1(CC[C@@H](C)[C@@H](C[C@H](C)O)O1)[C@@H]2C [Oligomycin_A]
rescue of cell number: 40.6%

C[S+]([O-])CCCCN=C=S (stereo unspecified) [Sulforaphane]
rescue of cell number: -10.7%

Fc1ccc(CNc2ncnc3ccc(F)cc23)cc1 [Spautin_1]
rescue of cell number: 2.13%

C[C@H]1[C@H](OC(=O)CCC(=O)O)O[C@@H]2O[C@@]3(C)CC[C@H]4[C@H](C)CC[C@@H]1[C@@]24OO3 [Artesunate]
rescue of cell number: 9.86%

Cc1ccccc1C(C(=O)NC1CCCC1)N(C(=O)Cn1cnc2ccccc21)c1cccc(F)c1 (stereo unspecified) [ML309]
rescue of cell number: 94.6%

Nc1ccn([C@@H]2C=C(CO)[C@@H](O)[C@H]2O)c(=O)n1 [Cyclopentenyl_cytosine]
rescue of cell number: 84.2%

CNCCC(Oc1ccc(C(F)(F)F)cc1)c1ccccc1 (stereo unspecified) [Fluoxetine]
rescue of cell number: 47%

N#Cc1ccnc(N2C(=O)CC[C@H]2C(=O)N(c2cncc(F)c2)[C@H](C(=O)NC2CC(F)(F)C2)c2ccccc2Cl)c1 [AG-120]
rescue of cell number: -8.45%

CC(=O)NC(CSC(=S)Nc1ccc(NC(=S)SCC(NC(C)=O)C(=O)O)cc1)C(=O)O (stereo unspecified) [2-AAPA hydrate]
rescue of cell number: -9.91%

S=c1nc[nH]c2nc[nH]c12 [6_Mercaptopurine]
rescue of cell number: -28.9%

NCCCNCCSP(=O)(O)O [Amifostine]
rescue of cell number: 110%

COC(=O)c1ccc([C@H]2c3[nH]c4ccccc4c3C[C@H](C(=O)OC)N2C(=O)CCl)cc1 [1S,3R-RSL3]
rescue of cell number: 35.2%

C=CCNC1=C2C[C@@H](C)C[C@H](OC)[C@H](O)[C@@H](C)/C=C(\C)[C@H](OC(N)=O)[C@@H](OC)/C=C\C=C(/C)C(=O)NC(=CC1=O)C2=O [17_AAG]
rescue of cell number: 54.1%

S=c1[nH]cnc2nc[nH]c12 [Mercaptopurine]
rescue of cell number: -32.1%

Cc1cccc(CN2CCN(C(c3ccccc3)c3ccc(Cl)cc3)CC2)c1 (stereo unspecified) [Meclizine]
rescue of cell number: 31.4%

Cc1cc(C)nc(NC(=S)N2CCN(Cc3ccc(C(F)(F)F)cc3)CC2)c1 [NCT-503]
rescue of cell number: -9.82%

Cc1cccc(CC(=O)N2CCc3c2ccc(-c2cn(C)c4ncnc(N)c24)c3F)n1
rescue of cell number: 70.7%

[N-]=[N+]=[N-] [Sodium_Azide]
rescue of cell number: -38.1%

CC1=C(/C=C/C(C)=C/C=C/C(C)=C/C(=O)Nc2ccc(O)cc2)C(C)(C)CCC1 [Fenretinide]
rescue of cell number: 12.2%

CCc1c(-c2ccccc2)c(-c2ccccc2)nn1-c1ccccc1-c1cccc(OCC(=O)O)c1
rescue of cell number: -14.6%

CN(Cc1ccc(C(C)(C)C)cc1)Cc1cccc2ccccc12 [Butenafine]
rescue of cell number: 14.4%

O=C(O)c1ccc2cc(-c3ccc(O)c(C45CC6CC(CC(C6)C4)C5)c3)ccc2c1 [CD_437]
rescue of cell number: 25.4%

CC(C)(O)CNc1nc(Nc2ccnc(C(F)(F)F)c2)nc(-c2cccc(C(F)(F)F)n2)n1 [AG-221]
rescue of cell number: 26.9%

CCCCN1C[C@H](O)[C@@H](O)[C@H](O)[C@H]1CO [Miglustat]
rescue of cell number: 5.72%

Nc1ccn([C@@H]2O[C@H](CO)[C@@H](O)C2(F)F)c(=O)n1 [Gemcitabine]
rescue of cell number: -5.76%

O=C1N[C@@H]2[C@@H](O)[C@@H](O)[C@H](O)[C@@H](CO)N2C1=O [Kifunensine]
rescue of cell number: 123%

O=C1CSC(c2ccccc2Cl)c2cc(Cl)ccc2N1 (stereo unspecified)
rescue of cell number: 3.61%
